From US20100022491A1, “4-HYDROXY-2-OXO-2,3-DIHYDRO-1,3-BENZOTHIAZOL-7YL COMPOUNDS FOR MODULATION OF B2-ADRENORECEPTOR ACTIVITY” (ASTRAZENECA AB, priority 2006, published 2010)
Where a name gives a salt, the structure may show the parent alone.

Experiments:
[1] = biological target: T1, recombinant human α1D receptor (Homo sapiens, UniProt P25100); experiment: Adrenergic α1D selectivity binding assay ([3H]-prazosin); conditions: inhibition of [3H]-prazosin (0.3 nM) binding, HEK293 membranes; for IC50: read-out: α1 bind pIC50 (converted)
T1 construct: expressed in transfected cells; host or cells: HEK293
T1 sequence (P25100 1-572): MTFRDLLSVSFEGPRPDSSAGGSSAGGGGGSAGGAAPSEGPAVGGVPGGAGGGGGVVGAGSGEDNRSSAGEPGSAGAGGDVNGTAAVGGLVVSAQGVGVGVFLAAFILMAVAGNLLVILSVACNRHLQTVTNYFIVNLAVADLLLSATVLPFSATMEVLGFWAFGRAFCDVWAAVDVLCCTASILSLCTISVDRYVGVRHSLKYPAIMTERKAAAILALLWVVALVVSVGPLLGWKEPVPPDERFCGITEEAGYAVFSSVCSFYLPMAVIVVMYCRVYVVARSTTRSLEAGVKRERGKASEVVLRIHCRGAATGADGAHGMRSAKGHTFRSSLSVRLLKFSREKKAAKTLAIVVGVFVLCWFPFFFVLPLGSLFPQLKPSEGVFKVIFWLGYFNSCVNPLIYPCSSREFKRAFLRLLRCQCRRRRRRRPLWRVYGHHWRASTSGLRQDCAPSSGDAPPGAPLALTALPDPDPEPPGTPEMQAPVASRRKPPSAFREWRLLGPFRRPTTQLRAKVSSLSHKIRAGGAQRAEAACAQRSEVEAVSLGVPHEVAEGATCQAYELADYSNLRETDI
Summary of the method: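 HEK293 membranes with recombinant human α1D receptor incubated 2 h at room temperature with 0.3 nM [3H]-prazosin and compound in 50 mM HEPES, 1 mM EDTA, 0.1% gelatin, pH 7.4; BMY7378 (10 μM) defined non-specific binding. Filter-bound radioactivity counted; pIC50 from four-parameter logistic fit.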

[2] = biological target: T2, recombinant human adrenergic beta 1 receptors (Homo sapiens, UniProt P08588); experiment: Adrenergic β1 selectivity binding assay ([125I]-Iodocyanopindolol); conditions: inhibition of [125I]-Iodocyanopindolol (0.036 nM) binding; for IC50: read-out: β1 bind p IC50 (converted)
T2 construct: purchased Euroscreen
Summary of the method: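 Recombinant human β1 membranes in HEPES buffer pH 7.4 with 120 mM NaCl were incubated 2 hours at room temperature with 0.036 nM [^125I]-Iodocyanopindolol. Nonspecific binding defined by 10 μM propranolol; bound radioactivity counted after filtration. pIC50 from four-parameter logistic fit.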

[3] = biological target: T3, recombinant human Dopamine Subtype D2s receptors (Homo sapiens, UniProt P14416); experiment: Dopamine D2 selectivity binding assay ([3H]-spiperone); conditions: inhibition of [3H]-spiperone (0.16 nM) binding; for IC50: read-out: D2 bind pIC50 (converted)
T3 construct: purchased Perkin Elmer
Summary of the method: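 Recombinant human D2s membranes incubated 2 h at room temperature with 0.16 nM [3H]-spiperone in HEPES/EDTA/NaCl/gelatin buffer, pH 7.4; 10 μM haloperidol defined non-specific binding. Filter-bound radioactivity counted after cold washes. pIC50 from 4-parameter logistic fit of NSB-corrected specific binding.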

T3 sequence (P14416 1-414 isoform P14416-2): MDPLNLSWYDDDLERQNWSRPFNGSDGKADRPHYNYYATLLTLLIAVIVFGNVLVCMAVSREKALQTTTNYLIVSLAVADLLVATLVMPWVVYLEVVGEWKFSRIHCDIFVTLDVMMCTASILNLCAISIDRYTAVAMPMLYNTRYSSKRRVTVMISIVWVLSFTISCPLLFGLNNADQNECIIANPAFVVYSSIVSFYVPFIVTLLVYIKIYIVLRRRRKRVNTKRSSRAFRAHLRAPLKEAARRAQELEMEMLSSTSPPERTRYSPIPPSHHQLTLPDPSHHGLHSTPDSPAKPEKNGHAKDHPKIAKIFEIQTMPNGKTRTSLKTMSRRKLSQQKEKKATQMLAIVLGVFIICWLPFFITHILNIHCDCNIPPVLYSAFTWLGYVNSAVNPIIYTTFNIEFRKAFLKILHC
T2 sequence (P08588 whole entry): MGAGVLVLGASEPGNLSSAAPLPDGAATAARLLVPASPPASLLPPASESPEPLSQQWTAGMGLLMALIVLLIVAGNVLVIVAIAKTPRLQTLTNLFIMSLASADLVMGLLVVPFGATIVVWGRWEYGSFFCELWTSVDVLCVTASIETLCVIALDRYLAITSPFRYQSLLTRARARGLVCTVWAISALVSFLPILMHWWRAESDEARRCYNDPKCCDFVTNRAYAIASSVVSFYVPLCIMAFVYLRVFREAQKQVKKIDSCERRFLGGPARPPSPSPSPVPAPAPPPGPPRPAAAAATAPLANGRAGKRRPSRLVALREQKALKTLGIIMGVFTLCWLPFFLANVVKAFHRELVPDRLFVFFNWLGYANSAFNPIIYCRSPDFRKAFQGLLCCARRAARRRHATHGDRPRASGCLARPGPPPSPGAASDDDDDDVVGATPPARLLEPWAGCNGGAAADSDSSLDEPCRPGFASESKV

| IC50 [2] [nM] | IC50 [3] [nM] | IC50 [1] [nM] | Structure (SMILES) | α1 bind pIC50 [1] | β1 bind p IC50 [2] | D2 bind pIC50 [3] |
| --- | --- | --- | --- | --- | --- | --- |
| 7940 | 501 | 158 | Cc1cccc(CCNCCC(=O)N(CCNCCc2ccc(O)c3[nH]c(=O)sc23)C2CCCCC2)c1 [Example 14, N-Cyclohexyl-N-(2-{[2-(4-hydroxy-2-oxo-2,3-dihydro-1,3-benzothiazol-7-yl)ethyl]amino}ethyl)-N^3-[2-(3-methylphenyl)ethyl]-β-alaninamide bis-trifluoroacetic acid salt] | – | – | – |
| 5010 | 63.1 | 63.1 | O=C(CCNCCc1cc(F)ccc1F)N(CCNCCc1ccc(O)c2[nH]c(=O)sc12)C1CCCCCC1 [Example 83, N^1-Cycloheptyl-N^3-[2-(2,5-difluorophenyl)ethyl]-N^1-(2-{[2-(4-hydroxy-2-oxo-2,3-dihydro-1,3-benzothiazol-7-yl)ethyl]amino}ethyl)-β-alaninamide bis-trifluoroacetic acid salt] | – | – | – |
| 1580 | 39.8 | 100 | O=C(CCNCCc1cccs1)N(CCNCCc1ccc(O)c2[nH]c(=O)sc12)C1CCCCCC1 [Example 52, N^1-Cycloheptyl-N^1-(2-{[2-(4-hydroxy-2-oxo-2,3-dihydro-1,3-benzothiazol-7-yl)ethyl]amino}ethyl)-N^3-[2-(2-thienyl)ethyl]-β-alaninamide bis-trifluoroacetic acid salt] | – | – | – |
| 3160 | 126 | 398 | O=C(CCNCCc1ccc(Cl)s1)N(CCNCCc1ccc(O)c2[nH]c(=O)sc12)C1CCCCC1 [Example 72, N^3-[2-(5-Chloro-2-thienyl)ethyl]-N^1-cyclohexyl-N^1-(2-{[2-(4-hydroxy-2-oxo-2,3-dihydro-1,3-benzothiazol-7-yl)ethyl]amino}ethyl)-β-alaninamide bis-trifluoroacetic acid salt] | – | – | – |
| 5010 | 1000 | 501 | O=C(CCNCCc1ccc(Cl)cc1)N(CCNCCc1ccc(O)c2[nH]c(=O)sc12)C1CCOCC1 [Example 26, N^3-[2-(4-Chlorophenyl)ethyl]-N-(2-{[2-(4-hydroxy-2-oxo-2,3-dihydro-1,3-benzothiazol-7-yl)ethyl]amino}ethyl)-N-(tetrahydro-2H-pyran-4-yl)-β-alaninamide bis-trifluoroacetic acid salt] | – | – | – |
| 7940 | 200 | 398 | O=C(CCNCCc1ccc(F)c(F)c1)N(CCNCCc1ccc(O)c2[nH]c(=O)sc12)C1CCCCC1 [Example 73, N^1-Cyclohexyl-N^3-[2-(3,4-difluorophenyl)ethyl]-N^1-(2-{[2-(4-hydroxy-2-oxo-2,3-dihydro-1,3-benzothiazol-7-yl)ethyl]amino}ethyl)-β-alaninamide bis-trifluoroacetic acid salt] | – | – | – |
| 3980 | 79.4 | 126 | O=C(CCNCCc1ccc(F)c(F)c1)N(CCNCCc1ccc(O)c2[nH]c(=O)sc12)C1CCCCCC1 [Example 53, N^1-Cycloheptyl-N^1-[2-(3,4-difluorophenyl)ethyl]-N^1-(2-{[2-(4-hydroxy-2-oxo-2,3-dihydro-1,3-benzothiazol-7-yl)ethyl]amino}ethyl)-β-alaninamide bis-trifluoroacetic acid salt] | – | – | – |
| 3160 | 158 | 50.1 | O=C(CCNCCc1ccccc1Cl)N(CCNCCc1ccc(O)c2[nH]c(=O)sc12)C1CCCCC1 [Example 17, N^3-[2-(2-Chlorophenyl)ethyl]-N-cyclohexyl-N-(2-{[2-(4-hydroxy-2-oxo-2,3-dihydro-1,3-benzothiazol-7-yl)ethyl]amino}ethyl)-β-alaninamide bis-trifluoroacetic salt] | – | – | – |
| 7940 | 631 | 100 | O=C(CCNCCc1ccc(F)cc1)N(CCNCCc1ccc(O)c2[nH]c(=O)sc12)C1CCCCC1 [Example 16, N-Cyclohexyl-N^3-[2-(4-fluorophenyl)ethyl]-N-(2-{[2-(4-hydroxy-2-oxo-2,3-dihydro-1,3-benzothiazol-7-yl)ethyl]amino}ethyl)-β-alaninamide bis-trifluoroacetic acid salt] | – | – | – |
| 631 | 398 | 251 | O=C(CCNC[C@H](O)c1ccccc1)N(CCNCCc1ccc(O)c2[nH]c(=O)sc12)C1CCCCC1 [Example 75, N^1-Cyclohexyl-N^1-(2-{[2-(4-hydroxy-2-oxo-2,3-dihydro-1,3-benzothiazol-7-yl)ethyl]amino}ethyl)-N^3-[(2R)-2-hydroxy-2-phenylethyl]-β-alaninamide bis-trifluoroacetic acid salt] | – | – | – |

More lines, now with the values behind:

| Structure (SMILES) | IC50 [2] [nM] | IC50 [3] [nM] | IC50 [1] [nM] | α1 bind pIC50 [1] | β1 bind p IC50 [2] | D2 bind pIC50 [3] |
| --- | --- | --- | --- | --- | --- | --- |
| O=C(CCNCCc1ccccc1)N(CCNCCc1ccc(O)c2[nH]c(=O)sc12)C1CCCCCC1 [Example 23, N-Cycloheptyl-N-(2-{[2-(4-hydroxy-2-oxo-2,3-dihydro-1,3-benzothiazol-7-yl)ethyl]amino}ethyl)-N^3-(2-phenylethyl)-β-alaninamide bis-trifluoroacetic acid salt] | 3980 | 251 | – | 7.2 | – | – |
| CCCC[C@@H](C)N(CCNCCc1ccc(O)c2[nH]c(=O)sc12)C(=O)CCNCCc1ccccc1 [Example 101, N-(2-{[2-(4-Hydroxy-2-oxo-2,3-dihydro-1,3-benzothiazol-7-yl)ethyl]amino}ethyl)-N-[(1R)-1-methylpentyl]-N^3-(2-phenylethyl)-β-alaninamide bis-trifluoroacetic acid salt] | 3980 | 31.6 | 50.1 | – | – | – |
| C[C@H](CNCCC(=O)N(CCNCCc1ccc(O)c2[nH]c(=O)sc12)CC(C)(C)C)c1ccccc1 [Example 11, N-(2,2-Dimethylpropyl)-N-(2-{[2-(4-hydroxy-2-oxo-2,3-dihydro-1,3-benzothiazol-7-yl)ethyl]amino}ethyl)-N^3-[(2S)-2-phenylpropyl]-β-alaninamide bis-trifluoroacetic acid salt] | 7940 | 501 | 501 | – | – | – |
| CC(CN(C(=O)CCNCCc1ccccc1)C1CCCCC1)NCCc1ccc(O)c2[nH]c(=O)sc12 (stereo not drawn) [Example 105, N-Cyclohexyl-N-(2-{[2-(4-hydroxy-2-oxo-2,3-dihydro-1,3-benzothiazol-7-yl)ethyl]amino}propyl)-N^3-(2-phenylethyl)-β-alaninamide bis-trifluoroacetic acid salt] | 1580 | 316 | 79.4 | – | – | – |
| CC(C)(C)CN(CCNCCc1ccc(O)c2[nH]c(=O)sc12)C(=O)CCNCCc1cccc(Cl)c1 [Example 7, N^3-[2-(3-Chlorophenyl)ethyl]-N-(2,2-dimethylpropyl)-N-(2-{[2-(4-hydroxy-2-oxo-2,3-dihydro-1,3-benzothiazol-7-yl)ethyl]amino}ethyl)-β-alaninamide bis-trifluoroacetic acid salt] | 3160 | 316 | 251 | – | – | – |
| CC(C)(CO)CN(CCNCCc1ccc(O)c2[nH]c(=O)sc12)C(=O)CCNCCc1cccc(Cl)c1Cl [Example 67, N^3-[2-(2,3-Dichlorophenyl)ethyl]-N^1-(3-hydroxy-2,2-dimethylpropyl)-N^1-(2-{[2-(4-hydroxy-2-oxo-2,3-dihydro-1,3-benzothiazol-7-yl)ethyl]amino}ethyl)-β-alaninamide bis-trifluoroacetic acid salt] | 1000 | 158 | 200 | – | – | – |
| O=C(CCNCCc1ccc(Cl)c(Cl)c1)N(CCNCCc1ccc(O)c2[nH]c(=O)sc12)C1CCOCC1 [Example 94, N^3-[2-(3,4-Dichlorophenyl)ethyl]-N-(2-{[2-(4-hydroxy-2-oxo-2,3-dihydro-1,3-benzothiazol-7-yl)ethyl]amino}ethyl)-N-(tetrahydro-2H-pyran-4-yl)-β-alaninamide dihydrobromide salt] | – | – | – | 6.2 | 5.7 | 6.1 |
| O=C(CCNCCc1ccccc1)N(CCNCCc1ccc(O)c2[nH]c(=O)sc12)C1Cc2ccccc2C1 [Example 41, N^1-(2,3-Dihydro-1H-inden-2-yl)-N^1-(2-{[2-(4-hydroxy-2-oxo-2,3-dihydro-1,3-benzothiazol-7-yl)ethyl]amino}ethyl)-N^3-(2-phenylethyl)-β-alaninamide bis-trifluoroacetic acid salt] | 1580 | 200 | 12.6 | – | – | – |
